2 molecules from patent US7201899B2, “Materials and methods for management of hyperacute rejection in human xenotransplantation” (BresaGen Limited, priority 1994, dated 2007) can be followed below.

Molecules are shown by their SMILES. Entries after “also recorded” stand apart in the source; their conditions may differ.

The test system of assay [1] is PAE's. Nature of the assay: Cytotox LDH release assay: effect of sugars on lysis of PAE's by human serum. Conditions: 50% human serum, sugar 1 mM to 100 mM. It counts as cell-based, porcine. The protocol: B. LDH Release Assay • 1. […] Controls: • a) Spontaneous release (no antibody or complement) • 25 μl labeled cells • 75 μl RPMI/10% FCS (heat inactivated) • b) Maximum release • 25 μl labeled cells • 50 μl 16% Triton X-100 • 25 μl RPMI/10% FCS (heat inactivated) • 3. Calculation of % Lysis: % Lysis=Experimental release−(Spontaneous release cpm+sugar cpm)×100 Maximum release−(Spontaneous release cpm+sugar cpm) • 4. Experimental Design:
The effect of adding the disaccharide sugars melibiose ([…]) and lactose (Gal β1→4 Glu) on the lysis of PAE's by human serum was assessed using the Cytotox non-radioactive LDH release assay. PAE's were incubated in the presence of 50% human serum as the source of xenoantibody and complement, together with various concentrations of each sugar (1 mM to 100 mM).
(LDH leaks from cells whose membrane has failed.)

Assay [2] concerns pig RBC. The experiment in a line: Hemagglutination of pig RBC by human serum: sugar inhibition. In kind it is cell-based. Conditions: for Inhibitory Concentration: inhibition of pig RBC hemagglutination by pooled human AB serum; for concentration range inhibiting agglutination (in words): pig RBC agglutination by human serum. As to the method: The methods used to investigate the hemagglutination of pig red blood cells (RBC's) by human serum was adapted from the methods described by Galili, J. Exp. Med. 160: 1579–81 (1984) and Severson, Immunol. 96: 785–789 (1966).
A. Media/Solution Preparation • 1. Human Serum Albumin (HSA) (CSL, Melbourne, Australia) (5 mg/ml) was dissolved in PBS, filter sterilized, and stored at 4° C. • 2. Preparation of sugars: • 1 M stock solutions of sugar were prepared by dissolving the amount indicated in 100 ml of PBS. Sodium azide was added (0.02%) and solutions stored at 4° C.
B. Preparation of Pig RBC'S • 1. Heparinised pig blood (Animal Resources, Clayton, Australia) is centrifuged at 800 RPM for 10 min to pellet the RBC. • 2. The RBC pellet is washed by resuspension in PBS (10 ml) and recentrifugation (repeated 3 times). After the final wash, the RBC pellet is resuspended in 10 ml PBS. • 3. A 0.5% solution of RBC's is prepared by adding 50 ul RBC solution (from step 2, above) to 10 ml PBS containing 0.5 g/100 ml of HSA.
C. Preparation of 96-well Microtitre Plates (Titretek. USA) • 1. Add 25 ul of PBS to each well. • 2. Add 25 ul of pooled human AB serum (CSL, Melbourne, Australia) to column 1 and serially dilute by removing 25 ul from column 1 and adding to column 2, then repeating by sequentially removing and adding 25 ul from and to each well across the plate, finally discarding 25 μl from column 11 and adding no serum to column 12. • 3. Add 25 ul of sugar solution to each row in decreasing concentrations down rows. No sugar solution is added to the final row. • 4. Incubate at 4° C. overnight and then at 37° C. for 30 min. • 5. Add 50 ul of 0.5% pig RBC to each well; vortex and incubate at room temperature for 2 hours. Determine agglutination visually. II. Results

For assay [3], the system named is pig kidney, heart and liver sections. The experiment in a line: Immunostaining of pig tissues with anti-GAL antibodies. It counts as binding. Conditions: pig renal cortex sections, proximal tubule brush borders; sugar 0.1 M. The protocol:
Pig kidney was fixed in formalin and dehydrated before embedding in Paraplast. Pig heart and liver were fixed in paraformaldehyde-lysine-periodate fixative and snap frozen in O.C.T. embedding compound (10.24% w/w polyvinyl alcohol, 4.26% w/w polyethylene glycol, 85.50% w/w nonreactive ingredients; Tissue Tek®, Miles, Inc., Elkhart, Ind., USA). Four μm-thick sections of pig heart and liver and 2 μm-thick sections of kidney were incubated with purified anti-GAL antibodies (undiluted, 1:2 and 1:4) for 60 min. and then incubated with a fluorescein isothiocyanate (FITC)-conjugated sheep anti-human immunoglobulin F(ab′) fragment. (Silenus Laboratories, Hawthorn, Australia) (1:100) for 30 min. or a peroxidase-conjugated rabbit anti-human IgG (Dakopatts, Glostrup, Denmark) (1:50) for 60 min. Control sections were analyzed for autofluorescence, with the secondary antibody alone, or with the anti-GAL-depleted IgG or normal pig serum as the primary antibody. […] The specificity of the anti-GAL antibodies was tested by pre-incubating sections of pig renal cortex with a variety of sugars, including melibiose, lactose, sucrose and glucose at 0.1 M.

With `OC[C@H]1O[C@@H](O[C@H]2[C@H](O)[C@@H](O)[C@@H](O)O[C@@H]2CO)[C@H](O)[C@@H](O)[C@H]1O` [Lactose, 4-O-β-D.galactopyranosyl-α-D-glucose], in assay [1], the “protection of PAE's from lysis by human serum” value is “not”. In assay [2], the “Inhibitory Concentration” value is >10^−1M and the “concentration range inhibiting agglutination (in words)” value is “only inhibitory when very high concentrations were used”. Also, the “inhibition of anti-GAL antibody binding to pig tissue by sugar” value in assay [3] is recorded as “not inhibited”.

`O=C[C@H](O)[C@@H](O)[C@H](O)[C@H](O)CO[C@H]1O[C@H](CO)[C@H](O)[C@H](O)[C@H]1O` [Melibiose, 6-O-α-D-galactopyranosyl-D-glucose]: the “protection of PAE's from lysis by human serum” value in assay [1] was “protected the pig cells from lysis”. Further, in assay [2], the “Inhibitory Concentration” value came to 0.0005 M and the “concentration range inhibiting agglutination (in words)” value is reported as “μM to mM range”. Further, the “inhibition of anti-GAL antibody binding to pig tissue by sugar” value in assay [3] was “reduced to near background; also recorded: inhibited”.
